# Source: US20080275111A1, “Novel Use of Lignan Compounds” (priority 2005, published 2008)
# Key:
# iNOS = iNOS expression in LPS-activated microglia (Western blotting); format: cell-based, mouse; conditions: 1 μg/ml LPS, compound 2.5 and 10 μM, 16 or 24 hours
# Source text: In Example <6-2>, it was observed that the NO production induced by LPS in the tissue-cultured microglia of mouse was inhibited by the lignan compound of the present invention. NO is produced by iNOS enzyme of which expression is induced by activation of microglia. Therefore, the correlation between the reduction of NO production and inhibition of iNOS expression was examined. Additionally, a change in the amount of a protein COX-2 participating in the production of other inflammation-mediating materials was examined. For Western blotting analysis, tissue-cultured microglia was cultured in a 60 mm cell culture dish up to a concentration of 7.5×10^5 cells/ml. After 1 day of cultivation, the activation of microglia was induced by 1 μg/ml of LPS (Sigma) treatment. Simultaneously, the microglia was also treated with 2.5 and 10 μM of the lignan compound of the present invention together with LPS, and incubated for 16 or 24 hours. The incubated cell was washed with cold PBS 2 times, and then dissolved in a cold lysis buffer (1% SDS, 1 mM Na3VO4, 10 mM NaF, 10 mM Tris-Cl, pH 7.4 containing 1× protease inhibitors cocktail). […] Then, the amount of proteins was quantified according to BCA method. […]
# NaCl containing 0.1% Tween 20) 3 times. […] Again, the membrane was then washed with TBS-T solution 3 times, and each band on the membrane was analyzed using ECL system (Sigma).
# [1] = system: lipid peroxidation of the brain tissue; assay: Lipid peroxidation of brain homogenate supernatant induced by hydrogen peroxide; format: biochemical, rat
# Method: After anesthesia of a rat, the tissue of the rat was perfused with 0.9% physiological saline solution containing EDTA. The brain was then extracted from the rat and washed with ice-cold 20 mM Tris-HCl (pH 7.4). After removing water, the weight of the brain was measured. The brain was mixed with 0.1 g/ml of ice-cold 20 mM Tris-HCl (pH 7.4) and homogenized. The homogenized brain was centrifuged and the supernatant was collected. 40 μl of the supernatant was mixed with 40 mM of hydrogen peroxide to induce lipid peroxidation. Simultaneously, different concentration (0.5, 1, 5 and 10 μM) of the lignan compounds isolated from the Example 1 were added into the supernatant, respectively. After incubation of the supernatant in water (37° C.) for 30-60 minutes, 162.5 μl of R1 solution (lipid peroxidation assay kit, Cat. No. 437634, Calbiochem) and 37.5 μl of R2 solution (lipid peroxidation assay kit, Cat. No. 437634, Calbiochem) were added into the cultured supernatant, and the supernatant was further incubated at 45° C. for 40 minutes. Then, the absorbance of the incubated medium was measured at 586 nm to quantify the lipid peroxidation.
# cell line HT-22 = assay: Cytotoxicity in cell line HT-22; format: cell-based; conditions: HT-22, 1, 5 and 10 μM, 24 hours, stated for 10 μM
# Method: In order to examine the cytotoxicity effect of macelignan itself, a cell line HT-22 derived from the hippocampus was treated with macelignan at concentrations (1, 5 and 10 μM) for 24 hours.
# [2] = Toxicity in oral administration; conditions: rat, in vivo; oral administration to rats; data not shown; read-out: 50% lethal dose (LD50)
# Method: The lignan compound of the present invention was tested for toxicity in oral administration to rats, and as a result, it was observed that the 50% lethal dose (LD50) was more than 2,000 mg/kg (Data is not shown).
# NO = NO production in LPS-activated microglia (Griess reagent); format: cell-based, mouse; conditions: 1 μg/ml LPS
# Method: When the microglia is activated, the expression of NO as a mediator of nerve transmission and immune response is induced (Liu, B. et al., Ann. N.Y. Acad. Sci., 962:318-331, 2002). Therefore, the effect of the lignan compound of the present invention on the NO production in microglia was examined. First, only the neocortex was isolated from the brain of 1 day-old mouse. Then, a microglia-astroglia mixture was prepared according to a method known in the art (Kim, H. Y. et al., J. Immunol., 171:6072-6079, 2003). The microglia-astroglia mixture was then divided at a ratio of 4 flasks/1 head and cultured in MEM medium containing 10% FBS in a 75 cm^2 flask for 2 weeks. The microglia was separated from the cultured cells and cultured in MEM medium containing 5% FBS for 24 hours. The tissue-cultured microglia was inoculated into MEM medium containing 5% FBS at a concentration of 1.5×10^4 cells/well and cultured in a 96-well plate. After 1 day of cultivation, the microglia was treated with 1 μg/ml of LPS (Sigma) to induce activation of the microglia. […] Then, the cell-cultured medium was collected and NO production was measured. The NO production was analyzed by measuring the amount of nitrite as a stable metabolite of NO in the cell-cultured medium using Griess reagent kit (Molecular Probe). […] Then, the absorbance of the resulting solution was measured with a microplate reader at 548 nm.
# [3] = system: tissue-cultured hippocampus neuron; assay: Reactive oxygen species production induced by BSO in tissue-cultured hippocampus neuron (DCFDA); format: cell-based, mouse; conditions: 1 mM BSO for 8 hours, compound 0.1, 0.5 and 1 μM; control not treated with BSO
# Method: Then, the antioxidant effect of the lignan compound of the present invention in the tissue-cultured hippocampus neuron was analyzed. For this analysis, the hippocampus of a fetus extracted from a pregnant (18 days) mouse was cultured in neurobasal medium (Gibco BRL) containing B-27 supplements and 2 mM L-glutamine for 10 days. To induce oxidative stress to the tissue-cultured hippocampus neuron, it was treated with 1 mM BSO for 8 hours. Here, the tissue-cultured hippocampus neuron was also treated with each concentration (0.1, 0.5 and 1 μM) of the lignan compound of the present invention simultaneously to analyze the reactive oxygen species-inhibitory effect of the lignan compound of the present invention. The control was not treated with BSO. Then, the amount of reactive oxygen species produced was measured by a method known in the art (Jung, Y. S., Biochem Biophys Res Commun., 320(3):789-94, 2004) using 10 μM DCFDA(molecular probes).
smiles,measurement,setting,value
"COc1cc(C[C@H](C)[C@H](C)Cc2ccc3c(c2)OCO3)ccc1O [macelignan, (8R,8′S)-7-(3,4-methylenedioxyphenyl)-7′-(4-hydroxy-3-methoxyphenyl)-8,8′-dimethylbutane]",expression of iNOS induced by LPS,iNOS,inhibited in a concentration dependent manner
same,lipid peroxidation induced by hydrogen peroxide at 10 μM,"[1]; 10 μM compound, compared with control without hydrogen peroxide",in the similar level as the control
same,lipid peroxidation induced by hydrogen peroxide,"[1]; rat brain supernatant, 40 mM hydrogen peroxide, compound 0.5, 1, 5 and 10 μM",dose-dependently inhibited
same,cytotoxicity,cell line HT-22,did not induce cytotoxicity
same,cytotoxicity,cell line HT-22; listed as lignan compound of the present invention,did not show cytotoxicity
same,LD50,[2],> 2000 mg/kg
same,NO production induced by LPS,"NO; compound 2.5 and 10 μM, 16 or 24 hours",dose-dependently inhibited
same,inhibition at 10 µM,"NO; Mus musculus, 10 μM compound, read-out: inhibition rate of NO production",~90%
same,production of reactive oxygen species in the tissue-cultured hippocampus neuron,[3],in the similar level as the control
